# Experimental data: ChEMBL document CHEMBL4339242, “Pyranoflavanones and Pyranochalcones from the Fruits of Amomum tsao-ko” (J Nat Prod, 2019)
# What was measured:
# RAW264.7 [1] = experiment: Inhibition of lipopolysaccharide-induced nitric oxide production in mouse RAW264.7 cells by Griess reagent based assay; type: functional, cell-based
# RAW264.7 [2] = experiment: Toxicity in lipopolysaccharide-induced mouse RAW264.7 cells by MTT-based colorimetric assay; type: cell-based
Compound,IC50 (RAW264.7 [1]) [µM],Activity (RAW264.7 [2])
N=C(N)NN [PIMAGEDINE],21.7,–
COc1cc2c(c3c1C(=O)C[C@H](c1ccc(O)cc1)O3)C=CC(C)(CCC=C(C)C)O2 (stereo partly specified),16.2,Non-Toxic
COc1cc2c(c3c1C(=O)C[C@@H](c1ccccc1)O3)C=CC(C)(CC/C=C(\C)CCC=C(C)C)O2 (stereo partly specified),28.7,Non-Toxic
COc1cc2c(c3c1C(=O)C[C@@H](c1ccc(O)cc1)O3)C=CC(C)(CCC=C(C)C)O2 (stereo partly specified),14,Non-Toxic
COc1cc2c(c3c1C(=O)C[C@@H](c1ccc(O)cc1)O3)C=CC(C)(CC/C=C(\C)CCC=C(C)C)O2 (stereo partly specified),39.2,Non-Toxic
COc1cc2c(c3c1C(=O)C[C@H](c1ccccc1)O3)C=CC(C)(CCC=C(C)C)O2 (stereo partly specified),10.6,Non-Toxic
COc1cc2c(c(O)c1C(=O)/C=C/c1ccc(O)cc1)C=CC(C)(CC/C=C(\C)CCC=C(C)C)O2 (stereo unspecified),30.6,Non-Toxic
COc1cc2c(c3c1C(=O)C[C@H](c1ccc(O)cc1)O3)C=CC(C)(CC/C=C(\C)CCC=C(C)C)O2 (stereo partly specified),41.5,Non-Toxic
COc1cc2c(c3c1C(=O)C[C@@H](c1ccccc1)O3)C=CC(C)(CCC=C(C)C)O2 (stereo partly specified),13.5,Non-Toxic
COc1cc2c(c3c1C(=O)C[C@H](c1ccccc1)O3)C=CC(C)(CC/C=C(\C)CCC=C(C)C)O2 (stereo partly specified),26.1,Non-Toxic
COc1cc2c(c(O)c1C(=O)/C=C/c1ccccc1)C=CC(C)(CC/C=C(\C)CCC=C(C)C)O2 (stereo unspecified),13.5,Non-Toxic
